Test results reported in patent US9505740B2, “Cyclic amine derivative and pharmaceutical use thereof” (Toray Industries, Inc., priority 2013, dated 2016).
Counter-ions that a name gives are not always drawn.

Key:
[1] = test system: fibromyalgia syndrome model rats; assay: Fibromyalgia syndrome model in rats (acidic saline), allodynia by von Frey filament; assay type: in vivo, rat; conditions: vs acidic saline-vehicle group
From the text: Using a fibromyalgia syndrome model in rats by which fibromyalgia syndrome can be evaluated, the analgesic action of a cyclic amine derivative (I) or a prodrug thereof or a pharmacologically acceptable salt thereof was investigated.
As the cyclic amine derivative (I) or a pharmacologically acceptable salt thereof, the compound of Example 13 was used for evaluation. As the prodrug of a cyclic amine derivative (I) or a pharmacologically acceptable salt thereof, the compound of Example 38 was used for evaluation. The compound of Example 38 is a hydrochloride of a prodrug obtained by esterifying the carboxyl group of the compound of Example 39 with an ethyl group.
To prepare a fibromyalgia syndrome model rat (Sluka et al., Journal of Pharmacology and Experimental Therapeutics, vol. 302, p. 1146-50, 2002; Nagakura et al., Pain, vol. 146, p. 26-33, 2009; Sluka et al., Pain, vol. 146, p. 3-4, 2009), which is generally employed widely in basic research for fibromyalgia syndrome, acidic saline (100 μL) adjusted to pH4.0 was intramuscularly injected to the gastrocnemius muscle of the right hind paw of Crl: CD(SD) rat (6 to 7 weeks old, male; from CHARLES RIVER LABORATORIES JAPAN, INC.) under continuous inhalation anesthesia with isoflurane, twice (once in each day of Day 1 and Day 6, wherein Day 1 was the date on which the acidic saline was initially administrated). The rats thus prepared were raised in a breeding room controlled at an indoor temperature of 21 to 25° C. and an indoor humidity of 40 to 70% under the conditions of voluntary intake of food and water. In the same manner, rats to which physiological saline in place of acidic saline was intramuscularly injected were raised. The rats thus raised and not afflicted with fibromyalgia syndrome (“physiological saline-vehicle” group in FIGS. 23 and 24) were also used in the experiment.
Day 7 after the initial administration of acidic saline, allodynia in each rat was measured. […] Note that, measurement of allodynia was performed by use of a von Frey filament (from North Coast Medical) in accordance with the method described in a known literature (Chaplan et al., Journal of Neuroscience Methods, vol. 53, p. 55-63, 1994). […]
The compound of Example 13 (3 and 10 mg/kg) was dissolved in physiological saline and then administered (intravenous administration) to fibromyalgia syndrome model rats through the tail vein (“acidic saline—the compound of Example 13” in FIG. 23). […] In thirty minutes after the intravenous administration, allodynia in individual rats was measured to evaluate an analgesic action. […]

[2] = test system: mouse partial sciatic nerve ligation model; assay: Mouse partial sciatic nerve ligation model (Seltzer model), von Frey test; assay type: in vivo; conditions: oral administration; Example 8 10 mg/kg (Day 7), Example 38 0.1 to 10 mg/kg (Day 8), pregabalin 10 mg/kg; 1, 2 and 3 hours after administration; vs partial sciatic nerve ligation+distilled water, p<0.05
From the text: Using a partial sciatic nerve ligation model (Seltzer model) in mice by which neuropathic pain can be evaluated, the analgesic action of a cyclic amine derivative (I) or a prodrug thereof or a pharmacologically acceptable salt thereof was investigated.
As the cyclic amine derivative (I) or a pharmacologically acceptable salt thereof, the compounds of Example 2, 4, 6, 8, 10, 12, 13, 15, 18, 22, 25, 27, 29, 31, 33, 66, 68 or 70 was used for evaluation. As the prodrug of the cyclic amine derivative (I) or a pharmacologically acceptable salt thereof, the compound of Example 38 was used for evaluation. The compound of Example 38 is a hydrochloride of a prodrug obtained by esterifying the carboxyl group of the compound of Example 39 with an ethyl group.
The mouse partial sciatic nerve ligation model was prepared in accordance with the method of Seltzer et al. (Malmberg et al., Pain, vol. 76, p. 215-222, 1998). • Slc: ICR mice (5 weeks old, male; from Japan SLC, Inc.) or Crl: CD1 (ICR) mice (5 weeks old, male; from CHARLES RIVER LABORATORIES JAPAN, INC.) were anesthetized with sodium pentobarbital (70 mg/kg, intraperitoneal administration). The sciatic nerve at the femoral region of the right hind paw of each mouse was exposed and triply ligated tightly with silk suture of 8-0 (from NATSUME […]., LTD.) under a stereomicroscope so that only half thickness of the nerve was trapped in the ligature. A group of mice thus treated was designated as a partial sciatic nerve ligation group. A group of mice whose sciatic nerve was just exposed and not ligated was designated as a sham surgery group.
Evaluation of neuropathic pain (hereinafter referred to as von Frey test) was performed as follows. Mice were conditioned for at least two hours in an acrylic cage for measurement (from NATSUME […]. LTD.) placed on a wire net. […]

[3] = test system: mouse partial sciatic nerve ligation model; assay: as above; assay type: in vivo; conditions: Day 7, vs physiological saline group
[4] = oral administration, 10 mg/kg, one hour and three hours after administration, p<0.05
[5] = intravenous administration (tail vein), Examples 2, 4: 0.1 to 10 mg/kg, 13: 0.01 to 1 mg/kg, 18, 22: 0.1 and 1 mg/kg, 25, 27, 29, 31, 33, 66, 68, 70: 0.1 mg/kg, pregabalin 1 or 3 mg/kg
[6] = intravenous administration, Example 13 3 and 10 mg/kg, pregabalin 10 mg/kg, 30 minutes after administration

Row | Structure (SMILES) | allodynia, 50% response threshold (mean value of the right hind paw and the left hind paw) [1, 4] | analgesic action, total score in the von Frey test [2] | analgesic action, total score in the von Frey test [3, 5] | analgesic action, total score in the von Frey test ([3]; intraventricular administration, 10 μg/site, 15, 30 and 60 minutes after administration, p<0.05) | allodynia, 50% response threshold (mean value of the right hind paw and the left hind paw) [1, 6]
1 | CCOC(=O)Cn1ccnc1CCC(=O)N1CCC(N(C)C)CC1 [Example 38, ethyl 2-(2-(3-(4-(dimethylamino)piperidin-1-yl)-3-oxopropyl)-1H-imidazol-1-yl)acetate hydrochloride] | statistically significantly improved | statistically significant analgesic action | – | – | –
2 | Cn1ccnc1CCC(=O)N1CCC(N)CC1 [Example 8, 1-(4-aminopiperidin-1-yl)-3-(1-methyl-1H-imidazol-2-yl)propan-1-one hydrochloride] | – | statistically significant analgesic action | – | – | –
3 | CN(C)C1CCN(C(=O)CCc2nccn2CC(=O)O)CC1 [Example 13, 2-(2-(3-(4-(dimethylamino)piperidin-1-yl)-3-oxopropyl)-1H-imidazol-1-yl)acetic acid hydrochloride] | – | – | statistically significant analgesic action | statistically significant analgesic action | statistically significantly improved
4 | CC(C)C[C@H](CN)CC(=O)O [pregabalin, reference compound] | statistically significantly improved | statistically significant analgesic action | statistically significant analgesic action | – | statistically significantly improved
